pIC50: −log10 of the molar value.
What follows are compounds tested on P. falciparum 3D7 growth, pLDH absorbance (assay: P. falciparum 3D7 growth inhibition, dose response, strain 3D7 (AID 2305)).

| Compound | pIC50 |
| --- | --- |
| CS(=O)(=O)N(c1ccccc1)c1cc(C(=O)N[C@@H](Cc2ccccc2)[C@H](O)CNC2CCCCC2)cc(N2CCCC2=O)c1 | 7.10 |
| COc1ccc(C=Cc2cc(N)c3ccccc3n2)cc1Br | 6.15 |
| OC(CNC1CCCCC1)Cn1c2ccc(Br)cc2c2cc(Br)ccc21 (centres undefined) | 6.52 |
| CC(=O)Nc1ccc(C(=O)Nc2cccc(-c3ccc(-c4nc5ccc(F)cc5[nH]4)cc3)c2)cn1 | 6.77 |
| O=C(Nc1ccc2ccccc2c1)c1ccc(CN2CCC(Cc3ccccc3)CC2)cc1 | 6.06 |
| Cc1ccc(Nc2nc(C)cc(N3CCN(CCc4ccccc4)CC3)n2)cc1 | 6.01 |
| N=C(N)c1cccc(-c2cc(-c3cccc(C(=N)N)c3)on2)c1 | 7.05 |
| CCOC(=O)c1ccc(NC(=O)N[C@@H](Cc2ccccc2)C(=O)NC2CCN(Cc3ccc(OCCCN(C)C)cc3)C2)cc1 (some centres undefined) | 6.15 |
| COc1cccc2c(NN=Cc3cccc(Cl)c3)ccnc12 | 6.08 |
| COc1ccc(C(=O)C2CCN(CCCCNC(=O)c3ccc(NC(=O)c4cc(Cl)cc(Cl)c4)cc3)CC2)cc1 | 6.77 |
| COC(=O)c1ccc(Nc2nccc(Nc3ccc(Oc4ccccc4)cc3)n2)cc1 | 5.99 |
| Cc1cc(Nc2ncc(C#N)c(Nc3ccccc3C(N)=O)n2)ccc1N1CCN(C)CC1 | 8.00 |
| O=c1[nH]c2c(cc1CNC1CCCCC1)c(-c1ccc(F)cc1)nn2-c1ccccc1 | 6.10 |
| CC[C@]1(C)C[C@@H](NC(=O)NC(=O)c2ccc(OC)cc2)[C@]2(C)[C@H](C)CC[C@]3(CCC(=O)[C@H]32)[C@@H](C)[C@@H]1OC(=O)NC(=O)c1ccc(OC)cc1 | 6.00 |
| CCn1c(-c2nonc2N)nc2c(-c3cccc(NC(=O)Nc4ccc(C#N)cc4)c3)ncc(OCCCN)c21 | 5.82 |
| Cc1ccc(CNC(=O)c2cnc(N3CCN(c4ccncc4)CC3)c(Cl)c2)cc1 | 5.89 |
| COc1cc2c(cc1OC)C(C(=O)c1ccccc1)=NCC2 | 5.96 |
| C[C@@H](Oc1cc(-n2cnc3ccc(OCC4CCN(S(C)(=O)=O)CC4)cc32)sc1C(N)=O)c1ccccc1C(F)(F)F | 5.99 |
| Cc1cnc2ccc(NS(=O)(=O)c3sc4ccc(Cl)cc4c3C)cc2c1N1CCNCC1 | 6.09 |
| CCN(CC)CCN1C(=O)c2oc3ccc(Cl)cc3c(=O)c2C1c1ccc(SC)cc1 (centres undefined) | 5.97 |
| NC(N)=NC(=O)Nc1cc(Cl)c(Cl)c(Br)c1 | 6.21 |
| COc1ccc2ccc(F)c(CC(=O)N3CCOC(CNCc4cccc(-c5ccc(F)cc5)n4)C3)c2n1 (centres undefined) | 6.00 |
| O=C(c1cc2c(s1)-c1cccc(Cl)c1SC2)N1CCN(c2ccncc2)CC1 | 6.00 |

| Compound | pIC50 |
| --- | --- |
| COc1ccc(-c2nc(NC(=O)COc3ccc(C(C)=O)cc3)sc2C)cc1 | 6.15 |
| Cc1cc(C(=O)CN2C(=O)NC3(CCCc4ccccc43)C2=O)c(C)n1Cc1ccco1 (centres undefined) | 5.96 |
| Cc1c(Cn2nc(Cl)c(N3CCNCC3)cc2=O)cccc1NC(=O)Nc1ccc(-c2ccccc2)cc1 | 5.86 |
| Cc1cc(O)c2c3c1C(=O)C=C1C3c3c(c(O)cc(O)c3C(=O)C1(C)C)C2=O (centres undefined) | 5.77 |
| Cc1cccc2[nH]c(-c3cccc(-c4ccc(CNCc5cccc(N)c5)cc4)c3)nc12 | 6.59 |
| Cc1ccc(NC(=O)NC2CCN(CCCCCNC(=O)/C=C/c3ccc(Cl)c(Cl)c3)CC2)cc1C | 6.14 |
| Cc1cc(N)c2cc(NC(=O)CCC(=O)Nc3ccc4nc(C)cc(N)c4c3)ccc2n1 | 6.02 |
| O=c1[nH]c(Cc2ccccc2)nc2ccc(Cl)cc12 | 6.06 |
| CN1CC[C@@H](Oc2cc(NC(=O)Nc3ccccc3Br)ccc2Cl)C1 | 5.96 |
| CCCCCCCCCc1c(C)[nH]c2ccccc2c1=O | 6.80 |
| c1cc(CNCCc2ccncc2)cc(-c2cccc(-c3nc4ccccc4[nH]3)c2)c1 | 6.82 |
| CCCCCCP(=O)(COc1ccc(CCN(CC(O)COc2cccc3[nH]c(C(N)=O)cc23)CC(O)COc2cccc3[nH]c(C(N)=O)cc23)cc1)OCCCC (centres undefined) | 6.14 |
| NC(=O)c1cccc(Nc2nccc(Nc3ccc(Oc4c(Cl)cccc4Cl)c(Cl)c3)n2)c1 | 6.06 |
| Cc1[nH]c(C)c(-c2ccc(OCc3cc(F)cc(F)c3)nc2)c(=O)c1Cl | 7.05 |
| Cc1cc(NCCCN2CCCC2=O)n2c(nc3ccccc32)c1C#N | 6.07 |
| CN1CCN(C(C(=O)NCc2cc(Cl)cc(Cl)c2)c2ccccc2-c2ccsc2)CC1 (centres undefined) | 6.03 |
| CCCCCOc1ccc(C(O)C(CCC(CN2CCCCCC2)C(O)c2ccc(OCCCCC)cc2)CN2CCCCCC2)cc1 (centres undefined) | 6.11 |
| CC1(C)[C@H]2CC[C@@H](CNc3nc(NCCc4cnc[nH]4)nc(NCc4cc(F)ccc4F)n3)[C@@H]1C2 | 6.51 |
| CN1CCN(c2ccnc3ccc(NC(=O)c4ccc(Cl)c(Cl)c4)cc23)CC1 | 6.15 |
| FC(F)(F)c1ccc2nccc(NN=Cc3ccccc3)c2c1 | 5.93 |
| COc1ccc(-c2ccc(NC(=O)c3cccc(Cl)c3)cc2)cc1CNC(C)C | 6.33 |
| CC(=O)Nc1ccc(S(=O)(=O)N(Cc2cccc(Oc3ccccc3)c2)C2CCN(C/C=C(\C)CCC=C(C)C)CC2)cc1 | 6.72 |
| O=C(Nc1ccc(CCNC2=NCCN2)cc1)Nc1ccc(CCNC2=NCCN2)cc1 | 6.10 |

| Compound | pIC50 |
| --- | --- |
| CN1C(C)(C)CC(NC(=O)c2ccc(-c3nc4ccc(Cl)cc4[nH]3)cc2)CC1(C)C | 6.00 |
| O[C@@H](c1ccccc1)[C@@H]1CN(CCC2C[C@@H]3CC[C@H]2C3)CC[C@@]1(O)c1ccccc1 (some centres undefined) | 6.46 |
| COCCn1c(C)cc(C(=O)CN2C(=O)NC(C)(c3ccc(C(C)(C)C)cc3)C2=O)c1C (centres undefined) | 6.33 |
| O=C(Nc1cccc(-c2nn3ncccc3c2-c2ccnc(Nc3ccc(N4CCOCC4)cc3)n2)c1)c1c(F)cccc1F | 6.80 |
| COc1ccc(NC(=O)[C@H](Cc2ccccc2)Nc2cc(C)nc(NCC3CCCCC3)n2)cc1 | 6.17 |
| CC(C)(C(=O)Nc1ccc(C2CCC(NCC3CC3)CC2)c(Cl)c1)c1ccc(C(F)(F)F)cc1 (centres undefined) | 6.02 |
| CCOc1ccccc1N1CCN(CCCNC(=O)/C(=C/C=C/c2cc3cc(Cl)c(Cl)cc3[nH]2)OC)CC1 | 6.07 |
| COc1ccccc1-c1cccc(Nc2c(Nc3ccc(Cl)cc3)c(=O)c2=O)c1 | 6.06 |
| CC(=O)N(Cc1cccc(-c2ccc(CNCCc3ccccc3)cc2)c1)C1CCN(Cc2ccccc2)CC1 | 6.16 |
| Cc1[nH]c(C)c(-c2ccc(Sc3ccc(Cl)cc3)cc2)c(=O)c1Br | 6.85 |
| CCCCN(CCCC)CCCCNc1c2ccc(Cl)cc2nc2ccc(OC)cc12 | 6.74 |
| Cc1[nH]c2cc(F)ccc2c1C1=CCN(CCCCC2(C)C(=O)Nc3ccccc32)CC1 (centres undefined) | 6.54 |
| O=C(NC1CCCCC1)N(Cc1ccc(-c2cccc(CNC3CCCC3)c2)cc1)C1CCN(Cc2ccccc2)CC1 | 6.11 |
| COc1ccc(Nc2cc(C)nc(Nc3ccc(NC(C)=O)cc3)n2)cc1 | 6.07 |
| Cn1cncc1C(=O)Nc1ccc(-c2cccc(-c3nc4ccc(C(F)(F)F)cc4[nH]3)c2)cc1 | 6.07 |
| CC1CCC(NC(=O)c2nn(-c3ccc(Cl)cc3)c(=O)c3ccccc23)CC1 (centres undefined) | 5.97 |
| CN(Cc1ccncc1)C(Cc1ccccc1)C1CCN(Cc2ccc(O)c(Cl)c2)CC1 (centres undefined) | 6.12 |
| O=C(NCCNc1ccnc(NCc2ccc(F)cc2)n1)c1cc2ccccc2s1 | 6.15 |
| CCN(CC)c1nc(Nc2cc(C)ccc2C)nc(Nc2ccccc2O)n1 | 6.19 |
| COc1ccc(OC)c(CNCC(O)c2cc(C(F)(F)F)cc(C(F)(F)F)c2)c1 (centres undefined) | 6.36 |
| NCCNc1ccnc2cc(Cl)ccc12 | 6.89 |
| CCNc1cc(C(=O)N[C@@H](Cc2ccccc2)[C@H](O)CNC2(C)CCCCC2)cc(N2CCCCS2(=O)=O)c1 | 6.80 |
| O=C1SC(=Cc2ccc(O)c(O)c2)C(=O)N1c1ccccc1 | 5.92 |
